Test results taken from patent US20050192227A1, “Method for reducing the risk of cancer” (priority 1999, published 2005).

Legend:
MCF-7 = conditions: ER+ breast cancer cell line MCF-7, in vitro; cited from earlier work
[1] = Effectiveness of daily doses against osteoporosis in men and women; format: in vivo, human; conditions: daily doses of 20 μg and 40 μg compared
biochemical bone markers = assay: Applicant's dose studies in human subjects: changes in biochemical bone markers; format: in vivo
Experimental: (§1) Therefore, for reducing risk on cancer in men or women with hPTH(1-34) according to the present invention, preferably one should use a daily dose greater than about 6 μg, more preferably at least about 15 μg. […] Therefore, any daily dose of hPTH(1-34) in the range of greater than about 6 μg to at least about 40 μg would be effective for reduction of the risk of cancer, according to the present method of using this form of parathyroid hormone. […] Accordingly, the present invention provides a method for reducing the risk of cancer in a human subject at risk thereof, comprising administering to the subject a parathyroid hormone. Preferably, the parathyroid hormone consists of amino acid sequence 1-34 of human parathyroid hormone. This hormone may be administered with or without concurrent administration of an antiresorptive agent other than vitamin D or calcium. Preferably, the hormone is administered in a daily dose in the range of about 15 μg to about 40 μg, for at least about 12 months. In this method for reducing the risk of cancer, the hormone may be administered for longer periods of several years (e.g., up to 3 years as in osteoporotic patients), including for the remaining life of a human subject identified as having a high risk of cancer.

[2] = Undesirable side effects of daily doses in human subjects; format: in vivo; conditions: daily dose of about 20 μg compared with about 40 μg
Experimental: as §1

detectable tumors = assay: Clinical trial of rhPTH(1-34) in postmenopausal women: incidence of cancer (patients with detectable tumors); format: in vivo, human; conditions: for number of patients with detectable tumors, breast carcinoma: 17-23 months, placebo 7; for number of patients with detectable tumors, skin carcinoma: placebo 5; for number of patients with detectable tumors, all cancers except breast carcinoma: placebo 16; for number of patients with detectable tumors, all cancers: placebo 21
Experimental: • Number of Subjects: rhPTH(1-34): 1093 enrolled, 848 finished. • Placebo: 544 enrolled, 447 finished. • Diagnosis and Inclusion Criteria: Women ages 30 to 85 years, postmenopausal for a minimum of 5 years, with a minimum of one moderate or two mild atraumatic vertebral fractures. • Dosage and Administration: Test Product (blinded) • rhPTH(1-34): 20 μg/day, given subcutaneously • rhPTH(1-34): 40 μg/day, given subcutaneously • Reference Therapy (blinded) • Placebo study material for injection • Duration of Treatment: rhPTH(1-34): 17-23 months (excluding 6-month run-in phase) • Placebo: 17-23 months (excluding 6-month run-in phase)
Criteria for Evaluation: Spine x-ray; serum biological markers (calcium, bon-specific alkaline phosphatase, procollagen I carboxy-terminal propeptide); urine markers (calcium, N-telopeptide, free deoxypyridinoline); 1,25-dihydroxyvitanin D; bone mineral density: spine, hip, wrist, and total body; height; population pharmacokinetics; bone biopsy (selected study sites).
Table 1 illustrates data showing the reduction in the number of patients having detectable tumors upon treatment with PTH.

Row | Substance | response of MCF-7 cells to PTHrP (MCF-7) | effectiveness against osteoporosis [1] | lowest tested dose found to be biologically active, as indicated by detectable changes in biochemical bone markers (biochemical bone markers) | effects on biochemical bone markers (biochemical bone markers; 6 μg dose) | undesirable side effects [2] | number of patients with detectable tumors, breast carcinoma (detectable tumors; PTH-20 (20 μg/day s.c., N = 541), p=0.017) | number of patients with detectable tumors, skin carcinoma (detectable tumors; PTH-20 (20 μg/day s.c., N = 541), p=0.532) | number of patients with detectable tumors, all cancers except breast carcinoma (detectable tumors; PTH-20 (20 μg/day s.c., N = 541)) | number of patients with detectable tumors, all cancers (detectable tumors; PTH-20 (20 μg/day s.c., N = 541), p=0.03) | number of patients with detectable tumors, breast carcinoma (detectable tumors; PTH-40 (40 μg/day s.c., N = 522), p=0.017) | number of patients with detectable tumors, skin carcinoma (detectable tumors; PTH-40 (40 μg/day s.c., N = 522), p=0.532) | number of patients with detectable tumors, all cancers except breast carcinoma (detectable tumors; PTH-40 (40 μg/day s.c., N = 522)) | number of patients with detectable tumors, all cancers (detectable tumors; PTH-40 (40 μg/day s.c., N = 522), p=0.03) | percentage of patients with any form of detectable cancer (detectable tumors; all PTH-treated patients (20 and 40 μg/day pooled) vs. placebo 3.86%, p=0.03) | percentage of patients with skin carcinoma (detectable tumors; all PTH-treated patients pooled vs. placebo 0.919%, p=0.532) | percentage of patients with breast carcinoma (detectable tumors; all PTH-treated patients pooled vs. placebo 1.29%, p=0.017) | percentage of patients with any form of detectable cancer, excluding breast carcinoma (detectable tumors; all PTH-treated patients pooled vs. placebo 2.94%)
1 | PTHrP: PTH-related peptide/protein | proliferates | – | – | – | – | – | – | – | – | – | – | – | – | – | – | – | –
2 | rhPTH(1-34) | – | similarly effective | about 15 μg | no significant effects | fewer undesirable side effects | 1 | 2 | 7 | 8 | 1 | 4 | 10 | 11 | 1.79% | 0.564% | 0.188% | 1.60%
